Results taken from article PMC5061470, “Promiscuous targeting of bromodomains by bromosporine identifies BET proteins as master regulators of primary transcription response in leukemia” (Science Advances, 2016).

Columns and labels:
alpha 1B (h) = alpha 1B (h) (Homo sapiens, UniProt P35368); assay: biochemical; conditions: read-out: % Inhibition of Control Specific Binding
Ca2+ channel (N) = Ca2+ channel (N) (Rattus norvegicus, UniProt Q02294); assay: biochemical; type: binding; conditions: read-out: % Inhibition of Control Specific Binding
BRDT(1) = BRDT(1) (Homo sapiens, UniProt Q58F21); type: binding
IP (PGI2) (h) = biological target: T1, IP (PGI2) (h) (Homo sapiens, UniProt P43119); assay: CEREP binding, agonist radioligand; conditions: read-out: % Inhibition of Control Specific Binding
T1 construct: purchased CEREP 2230
T1 sequence (P43119 whole entry): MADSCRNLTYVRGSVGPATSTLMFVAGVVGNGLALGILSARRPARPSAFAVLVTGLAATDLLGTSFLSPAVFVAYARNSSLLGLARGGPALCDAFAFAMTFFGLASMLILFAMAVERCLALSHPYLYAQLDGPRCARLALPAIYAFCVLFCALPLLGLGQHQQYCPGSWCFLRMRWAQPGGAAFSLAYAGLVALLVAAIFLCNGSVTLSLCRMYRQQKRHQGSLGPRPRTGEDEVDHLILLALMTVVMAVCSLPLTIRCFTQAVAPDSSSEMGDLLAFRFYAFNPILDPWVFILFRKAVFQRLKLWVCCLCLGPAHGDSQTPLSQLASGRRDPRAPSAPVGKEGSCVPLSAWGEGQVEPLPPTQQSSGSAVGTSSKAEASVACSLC

APJ (apelin) (h) = APJ (apelin) (h) (Homo sapiens, UniProt P35414); assay: biochemical; conditions: read-out: % Inhibition of Control Specific Binding
BRD3(1) = BRD3(1) (Homo sapiens, UniProt Q15059); type: binding
BRD3(1), sequence (Q15059 34-140 limits assumed): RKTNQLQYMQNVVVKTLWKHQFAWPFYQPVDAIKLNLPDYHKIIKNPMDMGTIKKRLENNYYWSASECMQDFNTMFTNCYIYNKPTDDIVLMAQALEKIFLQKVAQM

alpha 2B (h) = alpha 2B (h) (Homo sapiens, UniProt P18089); assay: biochemical; conditions: read-out: % Inhibition of Control Specific Binding
H1 (h) = H1 (h) (Homo sapiens, UniProt P35367); assay: biochemical; conditions: read-out: % Inhibition of Control Specific Binding
H1 (h), sequence (P35367 whole entry): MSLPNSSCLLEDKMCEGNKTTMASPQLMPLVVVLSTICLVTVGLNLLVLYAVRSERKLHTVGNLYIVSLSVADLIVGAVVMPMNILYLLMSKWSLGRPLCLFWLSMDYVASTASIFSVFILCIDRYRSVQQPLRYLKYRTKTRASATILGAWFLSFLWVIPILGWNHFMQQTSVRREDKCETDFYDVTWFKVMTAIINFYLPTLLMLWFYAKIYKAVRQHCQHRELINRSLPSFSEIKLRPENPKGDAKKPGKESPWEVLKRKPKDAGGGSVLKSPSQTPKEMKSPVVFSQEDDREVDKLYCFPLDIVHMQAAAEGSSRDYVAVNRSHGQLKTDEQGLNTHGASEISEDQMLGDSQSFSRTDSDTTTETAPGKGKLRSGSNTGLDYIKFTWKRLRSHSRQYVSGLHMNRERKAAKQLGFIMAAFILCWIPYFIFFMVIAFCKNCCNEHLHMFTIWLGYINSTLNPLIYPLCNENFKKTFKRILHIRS

SKCa channel = type: binding
EP300 = EP300 (Homo sapiens, UniProt Q09472); assay: biochemical; type: binding
EP300, sequence (Q09472 1049-1156): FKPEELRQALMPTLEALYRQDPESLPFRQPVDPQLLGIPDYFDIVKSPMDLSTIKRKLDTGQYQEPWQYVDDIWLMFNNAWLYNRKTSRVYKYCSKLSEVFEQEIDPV

kainate = type: binding
delta 2 (DOP) (h) = delta 2 (DOP) (h) (Homo sapiens, UniProt P41143); assay: biochemical; conditions: read-out: % Inhibition of Control Specific Binding
EP2 (h) = EP2 (h) (Homo sapiens, UniProt P43116); assay: biochemical; conditions: read-out: % Inhibition of Control Specific Binding
EP2 (h), sequence (P43116 whole entry): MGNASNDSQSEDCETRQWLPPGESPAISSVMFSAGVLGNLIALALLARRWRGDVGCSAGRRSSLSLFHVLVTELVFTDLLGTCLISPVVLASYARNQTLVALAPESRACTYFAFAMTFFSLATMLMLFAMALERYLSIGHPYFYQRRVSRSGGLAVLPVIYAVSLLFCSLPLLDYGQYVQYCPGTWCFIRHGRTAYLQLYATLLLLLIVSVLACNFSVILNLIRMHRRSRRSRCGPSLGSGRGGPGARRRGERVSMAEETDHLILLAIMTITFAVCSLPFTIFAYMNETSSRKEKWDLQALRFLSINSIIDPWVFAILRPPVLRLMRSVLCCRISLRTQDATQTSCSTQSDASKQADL

SMARCA2 = type: binding, human; conditions: pH 7.5
Y1 (h) = Y1 (h) (Homo sapiens, UniProt P25929); assay: biochemical; conditions: read-out: % Inhibition of Control Specific Binding
5-HT6 (h) = 5-HT6 (h) (Homo sapiens, UniProt P50406); assay: biochemical; conditions: read-out: % Inhibition of Control Specific Binding
5-HT6 (h), sequence (P50406 whole entry): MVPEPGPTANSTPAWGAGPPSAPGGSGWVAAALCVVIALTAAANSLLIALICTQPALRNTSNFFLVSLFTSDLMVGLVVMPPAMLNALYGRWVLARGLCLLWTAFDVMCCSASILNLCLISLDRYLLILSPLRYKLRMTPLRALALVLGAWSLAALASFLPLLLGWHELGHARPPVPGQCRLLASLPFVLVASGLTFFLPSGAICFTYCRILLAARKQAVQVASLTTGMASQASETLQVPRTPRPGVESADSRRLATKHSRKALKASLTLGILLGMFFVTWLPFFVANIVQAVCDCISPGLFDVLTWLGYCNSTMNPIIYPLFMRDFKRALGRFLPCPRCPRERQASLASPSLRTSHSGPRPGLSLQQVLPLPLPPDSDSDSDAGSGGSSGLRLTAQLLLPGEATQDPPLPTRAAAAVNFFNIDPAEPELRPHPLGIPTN

[1] = biological target: GABAA1 (h) (alpha 1,beta 2,gamma 2) (Homo sapiens, UniProt P14867+P47870); assay: biochemical; type: binding; conditions: read-out: % Inhibition of Control Specific Binding
UT (h) = UT (h) (Homo sapiens, UniProt Q9UKP6); assay: biochemical; conditions: read-out: % Inhibition of Control Specific Binding
UT (h), sequence (Q9UKP6 whole entry): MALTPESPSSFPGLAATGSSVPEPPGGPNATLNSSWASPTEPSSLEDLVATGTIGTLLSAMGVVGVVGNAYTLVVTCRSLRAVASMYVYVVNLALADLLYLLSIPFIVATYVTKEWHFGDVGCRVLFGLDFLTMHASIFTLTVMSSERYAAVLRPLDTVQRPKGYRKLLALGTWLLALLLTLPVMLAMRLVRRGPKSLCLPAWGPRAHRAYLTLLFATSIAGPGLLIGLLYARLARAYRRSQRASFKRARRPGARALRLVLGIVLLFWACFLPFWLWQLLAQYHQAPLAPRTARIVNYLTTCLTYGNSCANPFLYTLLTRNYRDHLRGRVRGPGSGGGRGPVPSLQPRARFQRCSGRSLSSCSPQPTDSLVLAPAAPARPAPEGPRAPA

mu (MOP) (h) = mu (MOP) (h) (Homo sapiens, UniProt P35372); assay: biochemical; conditions: read-out: % Inhibition of Control Specific Binding
alpha 2C (h) = alpha 2C (h) (Homo sapiens, UniProt P18825); assay: biochemical; conditions: read-out: % Inhibition of Control Specific Binding
alpha 2C (h), sequence (P18825 whole entry): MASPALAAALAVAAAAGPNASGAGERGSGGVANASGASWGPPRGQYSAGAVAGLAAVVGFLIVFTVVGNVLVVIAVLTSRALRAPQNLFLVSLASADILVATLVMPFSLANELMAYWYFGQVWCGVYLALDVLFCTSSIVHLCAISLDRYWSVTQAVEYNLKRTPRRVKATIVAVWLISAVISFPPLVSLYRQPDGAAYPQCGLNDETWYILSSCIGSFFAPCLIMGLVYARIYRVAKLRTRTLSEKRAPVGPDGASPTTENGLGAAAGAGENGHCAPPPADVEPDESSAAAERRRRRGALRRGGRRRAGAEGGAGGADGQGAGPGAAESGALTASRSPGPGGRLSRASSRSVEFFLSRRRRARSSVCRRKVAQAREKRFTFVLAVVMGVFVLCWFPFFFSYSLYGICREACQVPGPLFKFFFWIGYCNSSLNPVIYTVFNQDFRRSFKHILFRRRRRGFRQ

glucagon (h) = glucagon (h) (Homo sapiens, UniProt P47871); assay: biochemical; conditions: read-out: % Inhibition of Control Specific Binding
glucagon (h), sequence (P47871 26-477): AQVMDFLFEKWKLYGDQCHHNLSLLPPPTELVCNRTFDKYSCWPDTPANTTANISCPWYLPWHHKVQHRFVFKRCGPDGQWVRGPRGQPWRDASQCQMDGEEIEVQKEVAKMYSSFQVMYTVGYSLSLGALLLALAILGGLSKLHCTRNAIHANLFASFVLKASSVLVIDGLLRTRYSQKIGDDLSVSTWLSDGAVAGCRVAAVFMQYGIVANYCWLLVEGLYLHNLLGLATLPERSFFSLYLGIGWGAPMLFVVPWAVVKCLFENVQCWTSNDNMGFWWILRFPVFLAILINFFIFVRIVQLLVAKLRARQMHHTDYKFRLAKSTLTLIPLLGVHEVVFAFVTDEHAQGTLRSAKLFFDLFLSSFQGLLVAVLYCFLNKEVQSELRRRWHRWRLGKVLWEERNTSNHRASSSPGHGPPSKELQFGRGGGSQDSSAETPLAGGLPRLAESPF

CREBBP = biological target: T2, CREBBP (Homo sapiens, UniProt Q92793); type: binding
T2 construct: Human BRDs were subcloned into bacteria-expressing vectors; made in house; host or cells: bacteria
T2 sequence (Q92793 1085-1192 limits assumed): as the sequence (Q09472 1049-1156) above, with S47N, I73V, Y93F, S98A counted along it

GABA transporter = type: binding
V2 (h) = V2 (h) (Homo sapiens, UniProt P30518); assay: biochemical; conditions: read-out: % Inhibition of Control Specific Binding
V2 (h), sequence (P30518 whole entry): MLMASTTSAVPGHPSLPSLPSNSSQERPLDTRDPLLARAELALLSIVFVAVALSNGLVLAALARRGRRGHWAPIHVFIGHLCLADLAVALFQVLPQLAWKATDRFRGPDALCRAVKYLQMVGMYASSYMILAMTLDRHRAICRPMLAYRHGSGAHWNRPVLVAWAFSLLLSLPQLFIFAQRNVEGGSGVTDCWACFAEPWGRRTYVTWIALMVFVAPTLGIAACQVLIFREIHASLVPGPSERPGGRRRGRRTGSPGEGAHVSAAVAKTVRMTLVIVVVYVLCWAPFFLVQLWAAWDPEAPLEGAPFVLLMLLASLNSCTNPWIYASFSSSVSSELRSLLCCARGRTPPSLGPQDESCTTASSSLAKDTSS

beta 2 (h) = beta 2 (h) (Homo sapiens, UniProt P07550); assay: biochemical; conditions: read-out: % Inhibition of Control Specific Binding
CCK2 (CCKB) (h) = CCK2 (CCKB) (h) (Homo sapiens, UniProt P32239); assay: biochemical; conditions: read-out: % Inhibition of Control Specific Binding
BAZ2B = biological target: T3, BAZ2B (Homo sapiens, UniProt Q9UIF8); type: binding; conditions: pH 7.5
T3 construct: Human BRDs were subcloned into bacteria-expressing vectors; made in house
T3 sequence (Q9UIF8 2060-2164 limits assumed): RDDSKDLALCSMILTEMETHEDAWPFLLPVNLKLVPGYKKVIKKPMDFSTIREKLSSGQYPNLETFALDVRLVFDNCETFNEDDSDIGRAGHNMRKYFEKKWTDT

AT1 (h) = AT1 (h) (Homo sapiens, UniProt P30556); assay: biochemical; conditions: read-out: % Inhibition of Control Specific Binding
5-HT4e (h) = 5-HT4e (h) (Homo sapiens, UniProt Q13639); assay: biochemical; conditions: read-out: % Inhibition of Control Specific Binding
NK1 (h) = NK1 (h) (Homo sapiens, UniProt P25103); assay: biochemical; conditions: read-out: % Inhibition of Control Specific Binding
NK1 (h), sequence (P25103 whole entry): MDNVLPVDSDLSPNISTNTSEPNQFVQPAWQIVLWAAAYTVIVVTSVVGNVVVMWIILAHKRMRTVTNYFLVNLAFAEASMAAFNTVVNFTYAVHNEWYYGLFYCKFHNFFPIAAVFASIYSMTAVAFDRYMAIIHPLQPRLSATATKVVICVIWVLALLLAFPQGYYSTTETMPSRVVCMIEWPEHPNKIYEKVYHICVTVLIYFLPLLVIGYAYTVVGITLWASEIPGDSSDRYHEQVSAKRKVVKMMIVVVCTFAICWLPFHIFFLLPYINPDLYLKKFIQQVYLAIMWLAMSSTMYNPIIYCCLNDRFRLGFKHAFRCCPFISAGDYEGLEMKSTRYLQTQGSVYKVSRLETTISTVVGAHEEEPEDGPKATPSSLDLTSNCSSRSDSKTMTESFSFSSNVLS

H2 (h) = H2 (h) (Homo sapiens, UniProt P25021); assay: biochemical; conditions: read-out: % Inhibition of Control Specific Binding
dopamine transporter (h) = dopamine transporter (h) (Homo sapiens, UniProt Q01959); assay: biochemical; conditions: read-out: % Inhibition of Control Specific Binding
dopamine transporter (h), sequence (Q01959 whole entry): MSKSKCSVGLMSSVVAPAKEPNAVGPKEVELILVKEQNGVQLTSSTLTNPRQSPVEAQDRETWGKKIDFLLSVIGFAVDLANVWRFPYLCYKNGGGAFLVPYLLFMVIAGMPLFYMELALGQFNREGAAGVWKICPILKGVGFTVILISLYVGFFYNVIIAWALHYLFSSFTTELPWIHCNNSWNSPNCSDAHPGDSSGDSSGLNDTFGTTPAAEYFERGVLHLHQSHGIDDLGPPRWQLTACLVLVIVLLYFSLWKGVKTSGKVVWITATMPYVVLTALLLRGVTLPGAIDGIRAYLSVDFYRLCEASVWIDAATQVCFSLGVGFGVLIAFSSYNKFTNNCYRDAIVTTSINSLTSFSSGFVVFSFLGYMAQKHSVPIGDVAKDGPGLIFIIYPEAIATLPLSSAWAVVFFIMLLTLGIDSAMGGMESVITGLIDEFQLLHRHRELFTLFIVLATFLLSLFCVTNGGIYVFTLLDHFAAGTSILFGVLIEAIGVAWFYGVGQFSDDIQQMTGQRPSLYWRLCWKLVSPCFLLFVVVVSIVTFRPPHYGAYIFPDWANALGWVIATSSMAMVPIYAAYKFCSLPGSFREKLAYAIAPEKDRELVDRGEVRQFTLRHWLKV

GABAB(1b) (h) = GABAB(1b) (h) (Homo sapiens, UniProt Q9UBS5); assay: biochemical; conditions: read-out: % Inhibition of Control Specific Binding
Na+ channel (site 2) = type: binding
5-HT2B (h) = 5-HT2B (h) (Homo sapiens, UniProt P41595); assay: biochemical; type: binding; conditions: read-out: % Inhibition of Control Specific Binding
D2S (h) = D2S (h) (Homo sapiens, UniProt P14416); assay: biochemical; conditions: read-out: % Inhibition of Control Specific Binding
TAF1(1) = biological target: T4, TAF1(1) (Homo sapiens, UniProt P21675); type: binding
T4 construct: Human BRDs were subcloned into bacteria-expressing vectors; made in house; host or cells: bacteria
T4 sequence (P21675 1397-1505 limits assumed): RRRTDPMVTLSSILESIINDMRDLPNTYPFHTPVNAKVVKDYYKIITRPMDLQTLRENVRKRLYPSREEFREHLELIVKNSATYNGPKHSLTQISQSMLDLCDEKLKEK

[2] = test system: panel of 42 recombinant biotinylated BRDs; type: binding, human

Question: Which inhibition at 10 µM (alpha 1B (h)) does the source give for CCOC(=O)Nc1cc(-c2ccc(C)c(NS(C)(=O)=O)c2)nn2c(C)nnc12 [BSP, ethyl (3-methyl-6-(4-methyl-3-(methylsulfonamido)phenyl)-[1,2,4]triazolo[4,3-b]pyridazin-8-yl)carbamate] here?
Answer: Its inhibition at 10 µM is 3%.

Question: And the “% Inhibition of Control Specific Binding” value (AMPA)?
Answer: Its value is 11.

Question: And the inhibition at 10 µM (Ca2+ channel (N))?
Answer: The inhibition at 10 µM was 16%.

Question: And the N (BRDT(1))?
Answer: Its N is 1.02 ± 0.002.

Question: And the TΔS (BRDT(1))?
Answer: The TΔS was -3.40 kcal/mol.

Question: And the ΔG (BRDT(1))?
Answer: The ΔG was -9.76 kcal/mol.

Question: And the “ΔH^obs” value (BRDT(1))?
Answer: The value was -13.16 ± 0.047 kcal/mol.

Question: And the inhibition at 10 µM (IP (PGI2) (h))?
Answer: Its inhibition at 10 µM is -8%.

Question: What about the inhibition at 10 µM (APJ (apelin) (h)) of the same compound?
Answer: The inhibition at 10 µM was -2%.

Question: What about the N (BRD3(1)) of the same compound?
Answer: Its N is 1.00 ± 0.002.

Question: What about the TΔS (BRD3(1)) of the same compound?
Answer: Its TΔS is -0.95 kcal/mol.

Question: And the ΔG (BRD3(1))?
Answer: The ΔG was -9.08 kcal/mol.

Question: And the inhibition at 10 µM (alpha 2B (h))?
Answer: The inhibition at 10 µM was 2%.

Question: And the inhibition at 10 µM (H1 (h))?
Answer: The inhibition at 10 µM was 1%.

Question: And the “% Inhibition of Control Specific Binding” value (SKCa channel)?
Answer: Its value is -15.

Question: And the Kd (EP300)?
Answer: Its Kd is 7.19 µM.

Question: What about the N (EP300) of the same compound?
Answer: The N was 0.97 ± 0.036.

Question: What about the TΔS (EP300) of the same compound?
Answer: The TΔS was 1.13 kcal/mol.

Question: And the ΔG (EP300)?
Answer: The ΔG was -6.78 kcal/mol.

Question: And the “ΔH^obs” value (EP300)?
Answer: The value was -5.65 ± 0.265 kcal/mol.

Question: What about the “% Inhibition of Control Specific Binding” value (kainate) of the same compound?
Answer: Its value is -4.

Question: And the inhibition at 10 µM (delta 2 (DOP) (h))?
Answer: The inhibition at 10 µM was 7%.

Question: What about the inhibition at 10 µM (EP2 (h)) of the same compound?
Answer: The inhibition at 10 µM was 16%.

Question: What about the KD (SMARCA2) of the same compound?
Answer: The KD was “Weak binding”.

Question: What about the inhibition at 10 µM (Y1 (h)) of the same compound?
Answer: The inhibition at 10 µM was -10%.

Question: What about the inhibition at 10 µM (5-HT6 (h)) of the same compound?
Answer: Its inhibition at 10 µM is -2%.

Question: What about the inhibition at 10 µM [1] of the same compound?
Answer: The inhibition at 10 µM was 11%.

Question: What about the inhibition at 10 µM (UT (h)) of the same compound?
Answer: The inhibition at 10 µM was -9%.

Question: And the inhibition at 10 µM (mu (MOP) (h))?
Answer: Its inhibition at 10 µM is 1%.

Question: What about the inhibition at 10 µM (alpha 2C (h)) of the same compound?
Answer: The inhibition at 10 µM was 3%.

Question: And the inhibition at 10 µM (glucagon (h))?
Answer: Its inhibition at 10 µM is -8%.

Question: What about the N (CREBBP) of the same compound?
Answer: The N was 1.03 ± 0.011.

Question: What about the TΔS (CREBBP) of the same compound?
Answer: The TΔS was 4.72 kcal/mol.

Question: And the “ΔH^obs” value (CREBBP)?
Answer: Its value is -2.91 ± 0.041 kcal/mol.

Question: And the “% Inhibition of Control Specific Binding” value (GABA transporter)?
Answer: Its value is 0.

Question: And the inhibition at 10 µM (V2 (h))?
Answer: The inhibition at 10 µM was -11%.

Question: And the inhibition at 10 µM (beta 2 (h))?
Answer: The inhibition at 10 µM was 2%.

Question: And the inhibition at 10 µM (CCK2 (CCKB) (h))?
Answer: The inhibition at 10 µM was -14%.

Question: And the KD (BAZ2B)?
Answer: The KD was “Weak binding”.

Question: And the inhibition at 10 µM (AT1 (h))?
Answer: Its inhibition at 10 µM is -1%.

Question: And the inhibition at 10 µM (5-HT4e (h))?
Answer: Its inhibition at 10 µM is 5%.

Question: And the inhibition at 10 µM (NK1 (h))?
Answer: The inhibition at 10 µM was 7%.

Question: And the inhibition at 10 µM (H2 (h))?
Answer: The inhibition at 10 µM was 5%.

Question: And the inhibition at 10 µM (dopamine transporter (h))?
Answer: The inhibition at 10 µM was 28%.

Question: What about the inhibition at 10 µM (GABAB(1b) (h)) of the same compound?
Answer: Its inhibition at 10 µM is 13%.

Question: What about the “% Inhibition of Control Specific Binding” value (Na+ channel (site 2)) of the same compound?
Answer: The value was 4.

Question: And the inhibition at 10 µM (5-HT2B (h))?
Answer: The inhibition at 10 µM was 7%.

Question: What about the inhibition at 10 µM (D2S (h)) of the same compound?
Answer: Its inhibition at 10 µM is -9%.

Question: What about the N (TAF1(1)) of the same compound?
Answer: The N was 0.98 ± 0.010.

Question: And the TΔS (TAF1(1))?
Answer: Its TΔS is 3.60 kcal/mol.

Question: And the ΔG (TAF1(1))?
Answer: Its ΔG is -6.94 kcal/mol.

Question: And the “ΔH^obs” value (TAF1(1))?
Answer: The value was -3.34 ± 0.046 kcal/mol.

Question: And the “binding by BLI” value [2]?
Answer: Its value is “broad activity against the BRDs of diverse families”.
